Data reported in publication PMC8620715, “Biological Activity of Triazolopyrimidine Copper(II) Complexes Modulated by an Auxiliary N-N-Chelating Heterocycle Ligands” (Molecules, 2021).

Experiments:
[1] = system: plasmid pRSII325; assay: Nuclease activity assay (gel electrophoresis); format: biochemical; conditions: 37 °C; for DNA cleavage in the presence of H2O2: 0.1 and 0.5 mM complex + 1 mM H2O2, 1 h; for DNA cleavage in the presence of ascorbate: 0.1 and 0.5 mM complex + 1 mM ascorbate; for DNA cleavage in the presence of ascorbate / DNA cleavage, complex alone: 1 h; for DNA cleavage, complex alone: 0.1 and 0.5 mM
Procedure: To investigate the DNA cleavage activity of the two Cu(II) complexes, plasmidial DNA was incubated with (1) and (2), both in the absence or in the presence of activating agents, such as H2O2 or ascorbate. Exposure of DNA to the Cu(II) complexes in the presence of H2O2 exploits the CuII/III redox couple, while in the presence of ascorbate, the CuI/II redox couple is exploited. The nuclease activity of copper(II) complexes (1) and (2) was tested on plasmid pRSII325, which is a 6835 bp (base pair) circular plasmid. Gel electrophoresis of purified pRSII325 identified two main bands belonging to the supercoiled (SC) plasmid, which migrates faster, and the nicked-circular (NC) plasmid, which migrates slower (Figure 12, lane 1).
The nuclease activity of the compounds was determined using plasmid […] DNA, which was a gift from Steven Haase (Addgene plasmid #35467, 6835 base pairs). The plasmid was amplified in Escherichia coli by transforming One Shot® TOP10 chemically competent E. coli (Invitrogen, Thermo Fisher Scientific). The plasmid was isolated from positive colonies using a PureLink™ HiPure Plasmid Miniprep Kit (Invitrogen, Thermo Fisher Scientific). Plasmid (200 ng/sample) was exposed to complexes (1) and (2) in the presence of 1 mM hydrogen peroxide (to exploit the Cu(II/III) redox couple) or 1 mM ascorbic acid (to exploit the Cu(I/II) redox couple). The DNA cleavage experiments were done in a 9/1 (v/v) ratio of 50 mM Tris-HCl, pH 8, and DMSO. The samples were incubated for 1 h at 37 °C before a bromophenol blue/xylene cyanol-based loading dye (Roth, Germany) was added. The samples were loaded onto a 1% (w/v) agarose gel containing 1 μg/mL EtBr in 1 × TBE (Tris–boric acid–EDTA) buffer. Electrophoresis was performed at 50 V for 60 min in 1 × TBE buffer. The images of the fluorescent ethidium bromide-stained gels were captured using a gel documentation system (Doc-Print II, VilberLourmat, France). The cleavage experiments were done three times, with similar results. One representative gel is shown.

[2] = system: B16 cells; assay: Cell morphology by fluorescence microscopy (phalloidin staining), B16 cells; format: cell-based, mouse; conditions: 24 h
Procedure: The morphological changes induced by the treatment of the BJ and B16 cell lines with the tested compounds at two different concentrations (2.5 and 10 µg/mL) applied for 24 h were investigated by fluorescence microscopy.
According to the manufacturer protocol, the cytoskeleton actin filaments of BJ and B16 cells were stained with phalloidin-FITC (Sigma-Aldrich, St. Louis, MO, USA). Briefly, cells were washed with PBS (5 min, 3 times), fixed for 5 min with 3% paraformaldehyde, washed three times with PBS, permeabilized with 0.1% Triton X-100 in PBS for 15 min, washed three times with PBS, stained with 20 μg/mL phalloidin-FITC at room temperature for 1 h and rewashed three times with PBS. The cell nucleus was stained with 8 μM of Hoechst 33342 solution for 10 min, washed three times with PBS, and finally, mounted and sealed on glass slides with FluorSave™ Reagent (Merck Millipore, Germany). The fluorescence images were acquired using an Andor DSD2 Confocal Unit (Andor, Ireland), mounted on an epifluorescence microscope, Olympus BX-51 (Olympus, Germany), equipped with a 40x and 100x objective and an appropriate DAPI/Hoechst filter cube (excitation filter 390/40 […], dichroic mirror 405 nm and emission filter 452/45 nm) and GFP/FITC filter cube (excitation filter 466/40 nm, dichroic mirror 488 nm and emission filter 525/54 nm).

[3] = system: MRSA 388; assay: MIC by broth microdilution; format: cell-based, Staphylococcus aureus; conditions: MRSA 388, planktonic
Procedure: (§1) The antibacterial assays were carried out using two Gram-negative (Escherichia coli ATCC 25922, Pseudomonas aeruginosa ATCC 27853) and two Gram-positive (Staphylococcus aureus ATCC 25923, MRSA (meticillin-Resistant S. aureus) 388 (ATCC, American Type Culture Collection) bacteria.
(§2) The antimicrobial activity of the two complexes (1) and (2) was assessed using their minimum inhibitory concentration (MIC) by the broth microdilution method, as previously described by the Clinical and Laboratory Standard Institute (CLSI; M07-A9 document). A broth microdilution assay was performed in sterile 96-well plates using Muller-Hinton broth (Scharlau; MHB). The compounds solubilized in […] (1,000 μg/mL) were serially diluted in 90 μL MHB, in concentrations ranging between 500 and 0.97 μg/mL. Overnight cultures were used to prepare suspension in phosphate-buffered saline (pH 7.0) to match a 0.5 McFarland density. The bacterial suspensions were further diluted to 1:100 by adding 0.1 mL of bacterial suspension to 9.9 mL of MHB. A volume of 10 μL of this dilution was added to each well of columns 1–10, containing different concentrations of the tested compounds. […] Additionally, 10 μL of the diluted bacterial suspension was added in column 11 (the growth control). A volume of 100 μL MHB was added to the microtiter plates’ sterility control wells (column 12). After inoculation, the plates were incubated at 35 ± 2 °C for 18 h. Growth was measured as light absorbance (620 nm) in comparison to an uninoculated well (negative control). It was detected using a microtiter plate reader (Apollo LB 911ELISA (Berthold Technologies GmbH & Co. KG, Waltham, MA, USA)). The MIC of each compound was defined as the lowest concentration required to inhibit bacterial growth.

[4] = system: S. aureus 25923; assay: MIC by broth microdilution; format: cell-based, Staphylococcus aureus; conditions: S. aureus 25923, planktonic
Procedure: as §1, §2

[5] = 2.5 µg/mL (2.84 μM and 2.76 μM for the complexes)

SMILES	DNA cleavage in the presence of H2O2 [1]	DNA cleavage in the presence of ascorbate [1]	DNA cleavage, complex alone [1]	morphological changes of B16 cells [2, 5]	morphological changes of B16 cells ([2]; 10 μg/mL (11.05 µM))	MIC [3] [µM]	MIC [4] [µM]
Cc1cc(C)n2ncnc2n1.Cc1cc(C)n2ncnc2n1.Cc1cc(C)n2ncnc2n1.O.[Cu+2].[O-][Cl+3]([O-])([O-])[O-].[O-][Cl+3]([O-])([O-])[O-].c1cnc2c(c1)ccc1cccnc12 [Complex (2), [Cu(phen)(dmtp)2(OH2)](ClO4)2·dmtp]	H2O2 strongly enhancing the nuclease activity	a higher concentration of (2) was needed for full nuclease activity	caused plasmid relaxation to the NC form	not altered	significant changes	20	40
Cc1cc(C)n2ncnc2n1.Cc1cc(C)n2ncnc2n1.Cc1cc(C)n2ncnc2n1.O.[Cu+2].[O-][Cl+3]([O-])([O-])[O-].[O-][Cl+3]([O-])([O-])[O-].c1ccc(-c2ccccn2)nc1 [Complex (1), [Cu(bpy)(dmtp)2(OH2)](ClO4)2·dmtp]	led to DNA degradation	led to DNA degradation	caused plasmid relaxation to the NC form	not altered	–	350	180
